The values below come from paper PMC7589200, “Identification of Putative Non-Substrate-Based XT-I Inhibitors by Natural Product Library Screening” (Biomolecules, 2020).

One series relates to TGFB1 mRNA expression. Briefly: TGFB1 mRNA expression in NHDFs by qRT-PCR. Type of series: cell-based, human. The following applies: 2 μM in the presence of TGF-β1 (5 μg/L), 48 h. How it is done: (§1) A former established cell culture model was utilized to investigate the effect of putative XT-I inhibitors on NHDFs. The inhibition studies were carried out with final inhibitor concentrations of 0.5, 1.0, 2.0 or 4.0 μM diluted in fully supplemented DMEM. In brief, unless otherwise stated, NHDFs were cultivated with a low density of 50 cells per mm^2 on a hard tissue culture substrate (100 × 20 mm dish) in fully supplemented DMEM with or without additional TGF-β1 (5 μg/L) for 24 h, promoting their transdifferentiation into proto-myofibroblasts. Thereafter, cells were treated with celastrol or amphotericin B in the presence or absence of TGF-β1 (5 μg/L) for an additional 48 h. Negative controls treated with solvent only were included for every sampling time. The final DMSO content of 0.04% (v/v) was kept constant in all inhibition experiments.
(§2) The RNA extraction from cell lysates and cDNA synthesis for mRNA and miRNA expression analysis were performed as described previously.
(§3) Quantitative real-time polymerase chain reaction (qRT-PCR) analysis using a LightCycler 480 Instrument II system (Roche, Basel, Swiss) was performed as previously described. […] The geometric mean of the expression levels of the housekeeping genes SDHA, RPL13A and B2M were calculated for expression normalization. The relative target gene mRNA expressions were determined by the ΔΔCT method considering the PCR efficiency. […]
In general terms: Real-time PCR tracks product formation cycle by cycle.

In another series the test system is SMAD7 mRNA expression. Briefly: SMAD7 mRNA expression in NHDFs by qRT-PCR. The following applies: 2 μM in the presence of TGF-β1 (5 μg/L), 48 h. It counts as cell-based, human. The procedure: as §1, with “experiments. […]” for “experiments.”
as §3

For the next series, the system named is COL1A1 mRNA expression. Nature of the series: COL1A1 mRNA expression in NHDFs by qRT-PCR. Type of series: cell-based, human. The following applies: 48 h. The procedure:
as §1, §2, §3

The test system of another series is fibroblasts. The following applies: in vitro, osteoblasts and fibroblasts; cited from earlier work.

Where “and” joins values, the source holds several entries; their conditions need not be identical. Equal entries are not always repeated.

As to `C[C@@H]1[C@H](O)[C@@H](C)/C=C/C=C/C=C/C=C/C=C/C=C/C=C/[C@H](O[C@@H]2O[C@H](C)[C@@H](O)[C@H](N)[C@@H]2O)C[C@@H]2O[C@](O)(C[C@@H](O)C[C@@H](O)[C@H](O)CC[C@@H](O)C[C@@H](O)CC(=O)O[C@H]1C)C[C@H](O)[C@H]2C(=O)O` [Compound 17, Amphotericin B], the “TGFB1 mRNA expression relative to TGF-β1 only” value in the series on TGFB1 mRNA expression was 0.8 ± 0.04 fold. The “SMAD7 mRNA expression relative to TGF-β1 only” value in the series with SMAD7 mRNA expression is recorded as 1.3 ± 0.1 fold. In the series on COL1A1 mRNA expression (2.0 μM with TGF-β1 (5 μg/L)), the “TGF-β1-mediated COL1A1 mRNA expression relative to TGF-β1 only” value was 0.8 ± 0.06 fold. In the series with COL1A1 mRNA expression (amphotericin B treatment, not statistically significant (p = 0.2)), the “COL1A1 mRNA expression compared to controls treated with DMSO” value turned out to be 0.7 ± 0.1 fold. In the series on fibroblasts, the “concentration causing sublethal cytotoxicity” value was 5 mg/L and 10 mg/L; the “concentration lethal to fibroblasts” value is 100 µg/mL.
